Data from article PMC11785708, “Design and synthesis of new quinazolinone derivatives: investigation of antimicrobial and biofilm inhibition effects” (Molecular Diversity, 2024).
In brackets after ≈: the same amount, converted by molar mass. Several values for one entry are separate records, joined by “and”; a condition that tells them apart may be missing. Equal values may be shown once.

How the values were obtained:
[1] = tested on: P. aeruginosa ATCC 27953; test: MIC determination, P. aeruginosa; format: cell-based, Pseudomonas aeruginosa; settings: serial dilutions, triplicate; for MIC: Pseudomonas aeruginosa, ATCC27953
Protocol: (§1) Serial dilutions of the test compounds were tested to determine their MIC against the most susceptible organisms. The MIC was expressed as the lowest concentration which inhibited the visible growth of the corresponding microorganism. All assays were performed in triplicate.

[2] = tested on: B. cereus ATCC 6629; test: Agar well diffusion, B. cereus; format: cell-based; settings: Bacillus cereus, ATCC6629; 100 μl of test compound 20 mg/ml in DMF; ciprofloxacin and fluconazole 30 μg/ml; 24 h; mean ± SD; read-out: diameters of inhibition zone, B. cereus ATCC 6629
Protocol: (§2) The antimicrobial activity was tested against Gram positive bacteria: Bacillus cereus (B. cereus ATCC 6629), Bacillus subtilis (B. subtilis ATCC 6633), Staphylococcus aureus (S. aureus ATCC 6538), Gram negative bacteria: Klebsiella pneumoniae (K. pneumoniae ATCC 13883), Pseudomonas aeruginosa (P. aeruginosa ATCC 27953) and Candida albicans (C. albicans ATCC 10231). Glycerol stocks were thawed upon need and propagated into nutrient broth at 37 °C. The antibacterial activity of the compounds 9-32 was carried out in vitro using the agar well diffusion method, originally reported by […] and Bauer and coworkers and described by the National Committee for Clinical Laboratory Standards (NCCLS). Bacterial strains, adjusted at […] (equivalent to 0.5 McFarland), were used to inoculate nutrient agar plates. 9-mm diameter wells were punched into the solidified nutrient agar plates using sterile cork borer and 100 μl samples of the test compounds, dissolved in dimethyl formamide (DMF) at 20 mg/ml concentrations, were added and allowed to diffuse at 4 °C for 2 h. Subsequently, the plates were incubated overnight in an upright position at 37 °C. DMF was used as a negative control while ciprofloxacin and fluconazole (30 μg/ml) served as positive controls. After 24 h incubation, the diameters of the growth inhibition zones were recorded in mm. Data was expressed as mean ± standard deviation of three replicates.

[3] = tested on: B. cereus ATCC 6629; test: MIC determination, B. cereus; format: cell-based, Bacillus cereus; settings: Bacillus cereus, ATCC6629; serial dilutions, triplicate
Protocol: as §1

[4] = tested on: S. aureus ATCC 6538; test: Agar well diffusion, S. aureus; format: cell-based; settings: Staphylococcus aureus, ATCC6538; 100 μl of test compound 20 mg/ml in DMF; ciprofloxacin and fluconazole 30 μg/ml; 24 h; mean ± SD; read-out: diameters of inhibition zone, S. aureus ATCC 6538
Protocol: as §2

[5] = Cell viability MTT assay; format: cell-based; settings: human, BJ1 cells (normal skin fibroblasts)
Protocol: Cell viability testing at 5 mg/ml was carried out by colorimetric MTT assay on human normal cell line BJ1 (skin fibroblasts) to investigate the toxicity of the most broad spectrum derivatives 9, 15, 16, 18, 19, 20 and 29 (Table 3). The viability of the cells treated with the aforementioned derivatives was more than 87% at 5 mg/ml concentration. This gives indication that the compounds are tolerated and nontoxic for human cells, as the cytotoxic dose was higher than the therapeutic dose on most of microorganisms. It is worth mentioning that the safe limit of the percent of dead cells is not an absolute value and could be more than 10% as reported in previous studies.
The most broad spectrum compounds were evaluated for their cytotoxic activity against BJ1 cell line using colorimetric MTT [3-(4,5-dimethylthiazol-2-yl)-2,5-diphenyltetrazolium bromide] assay.

[6] = tested on: P. aeruginosa ATCC 27953; test: Agar well diffusion, P. aeruginosa; format: cell-based; settings: Pseudomonas aeruginosa, ATCC27953; 100 μl of test compound 20 mg/ml in DMF; ciprofloxacin and fluconazole 30 μg/ml; 24 h; mean ± SD; read-out: diameters of inhibition zone, P. aeruginosa ATCC 27953
Protocol: as §2

[7] = tested on: C. albicans ATCC 10231; test: Agar well diffusion, C. albicans; format: cell-based; settings: Candida albicans, ATCC10231; 100 μl of test compound 20 mg/ml in DMF; ciprofloxacin and fluconazole 30 μg/ml; 24 h; mean ± SD; read-out: diameters of inhibition zone, C. albicans ATCC 10231
Protocol: as §2

[8] = tested on: C. albicans ATCC 10231; test: MIC determination, C. albicans; format: cell-based, Candida albicans; settings: Candida albicans, ATCC10231; serial dilutions, triplicate
Protocol: as §1

[9] = tested on: S. aureus ATCC 6538; test: MIC determination, S. aureus; format: cell-based, Staphylococcus aureus; settings: serial dilutions, triplicate; for MIC: Staphylococcus aureus, ATCC6538
Protocol: as §1

[10] = tested on: B. subtilis ATCC 6633; test: Agar well diffusion, B. subtilis; format: cell-based; settings: Bacillus subtilis, ATCC6633; 100 μl of test compound 20 mg/ml in DMF; ciprofloxacin and fluconazole 30 μg/ml; 24 h; mean ± SD; read-out: diameters of inhibition zone, B. subtilis ATCC 6633
Protocol: as §2

[11] = tested on: P. aeruginosa ATCC 27953; test: Bacterial cell surface hydrophobicity (CSH) assay (MATH / BATH); format: cell-based, Pseudomonas aeruginosa; settings: increasing concentrations, toluene partition (Fig. 6)
Protocol: The effect of the test compounds 19 and 20 on cell surface hydrophobicity was investigated via the microbial or bacterial adherence to hydrocarbons (MATH / BATH) assay. Exponentially growing culture of P. aeruginosa ATCC 27953 incubated with or without test compounds were centrifuged, the pellets were re-suspended and OD600 was measured using UV/Vis spectrophotometer (Jasco V-630, Tokyo, Japan) to give Ao. The re-suspended cells were vigorously mixed with toluene followed by measuring the OD600 of the aqueous phase to give At. The hydrophobicity index was calculated as follows: Hydrophobicityindex=Ao-At/Ao×100

[12] = tested on: P. aeruginosa ATCC 27953; test: Biofilm inhibition assay (crystal violet); format: cell-based; settings: Pseudomonas aeruginosa, ATCC27953, P. aeruginosa ATCC 27953, 24 h
Protocol: Compounds with potential activity against P. aeruginosa ATCC 27953 were tested for the respective biofilm inhibition. The assay was carried out in microtiter plate setup using crystal violet (CV) staining of adherent cells, as modified from.
After 24 h cultivation, the supernatant and planktonic cells were discarded, wells were washed with phosphate buffered saline (PBS) and biofilms were stained with 0.1% CV. CV was subsequently washed then, solubilized with 33% (v/v) glacial acetic acid. The absorbance was measured at 540 nm using SPECTROstar® Nano microplate reader (BMG LABTECH GmbH, Germany). The experiments were performed in triplicate and independently repeated three times. GraphPad Prism 6.0 software was used to estimate the IC50 values, which correspond to […].

[13] = tested on: B. subtilis ATCC 6633; test: MIC determination, B. subtilis; format: cell-based, Bacillus subtilis; settings: Bacillus subtilis, ATCC6633; serial dilutions, triplicate
Protocol: as §1

[14] = tested on: Pseudomonas aeruginosa ATCC 27953; test: Twitching motility assay; format: cell-based; settings: highest tested concentration (= MIC)
Protocol: 5 µL of overnight-grown bacteria were stab-inoculated into Luria Bertani (LB) soft or quasi-solid plates containing 0.3% agar mixed with different concentrations of compounds 19, 20 and further incubated overnight in an upright position. The visible detectable distance of corrugated trails of twitching zones, away from the inoculation center at the petri dish-agar interface, was measured afterwards. The results were recorded as the average of several diameters’ measurements. DMF was used as a negative control. The experiments were performed in triplicate and represented as the mean of three measurements.

[15] = tested on: P. aeruginosa ATCC 27953; test: Inhibition of exopolysaccharide (EPS) production; format: cell-based, Pseudomonas aeruginosa; settings: means ± standard errors
Protocol: The inhibition of exopolysaccharide production by P. aeruginosa ATCC 27953 using quinazolinone derivatives was assessed according to total carbohydrate measurement.
P. aeruginosa’s biofilm was grown in the presence or absence of compounds (19, 20). Cells were incubated for 1 h with an equal volume of 5% (v/v) phenol and 5 × volume of concentrated sulfuric acid containing 0.2% (w/v) hydrazine sulphate then centrifuged at 10,000 g for 10 min (Z 326 K, HERMLE Labortechnik GmbH, Wehingen, Germany). The optical density of the supernatant was measured at 490 nm and the reduction in EPS was calculated as follows: EPSquantification%=OD490ofcontrol-OD490oftest/OD490ofcontrol×100

[16] = tested on: K. pneumoniae ATCC 13883; test: MIC determination, K. pneumoniae; format: cell-based, Klebsiella pneumoniae; settings: Klebsiella pneumoniae, ATCC13883; serial dilutions, triplicate
Protocol: as §1

[17] = tested on: K. pneumoniae ATCC 13883; test: Agar well diffusion, K. pneumoniae; format: cell-based; settings: Klebsiella pneumoniae, ATCC13883; 100 μl of test compound 20 mg/ml in DMF; ciprofloxacin and fluconazole 30 μg/ml; 24 h; mean ± SD; read-out: diameters of inhibition zone, K. pneumoniae ATCC 13883
Protocol: as §2

SMILES | MIC [1] [µg/mL] | zone of inhibition at 20000 µg/mL [2] [mm] | MIC [3] [µg/mL] | melting point [°C] | zone of inhibition at 20000 µg/mL [4] [mm] | viability at 5 mg/ml [5] [%] | zone of inhibition at 20000 µg/mL [6] [mm] | zone of inhibition at 20000 µg/mL [7] [mm] | MIC [8] [µg/mL] | MIC [9] [µg/mL] | zone of inhibition at 20000 µg/mL [10] [mm] | MIC [13] [µg/mL] | % EPS inhibition ([15]; 1/4 MIC) [%] | % EPS inhibition ([15]; 1 MIC) [%] | % EPS inhibition ([15]; 2 MIC) [%] | MIC [16] [µg/mL] | zone of inhibition at 20000 µg/mL [17] [mm] | other results
O=c1c2ccccc2nc(CN2CCCC2)n1N=Cc1ccc(Cl)cc1 [Compound 16, 3-[(4-Chlorobenzylidene)amino]-2-(pyrrolidin-1-ylmethyl).quinazolin-4(3H)-one] | 1500 (≈ 4.09 mM) | 13 ± 0.14 | 2000 ± 140 (≈ 5.45 mM) | 138 | 12 ± 0.08 | 93.5 ± 1.54 | 17 ± 0.26 | 13 ± 0.29 | 10000 ± 500 (≈ 27.3 mM) | 500 (≈ 1.36 mM) | – | – | – | – | – | – | – | MIC, S. aureus ATCC 6538 [9]: 500 ± 0 µg/mL (≈ 1.36 mM)
COc1cc(C=Nn2c(CN3CCCC3)nc3ccccc3c2=O)cc(OC)c1OC [Compound 19, 2-(Pyrrolidin-1-ylmethyl)-3-[(3,4,5-trimethoxybenzylidene)amino]quinazolin-4(3H)-one] | 150 (≈ 0.355 mM) | 17 ± 0.22 | 10000 ± 500 (≈ 23.7 mM) | 166 | – | 92.3 ± 3.37 | 16 ± 0.18 | – | – | – | 14 ± 0.31 | 1000 ± 290 (≈ 2.37 mM) | 54.15 ± 4.00 | 55.93 ± 3.31 | 63.79 ± 2.70 | 1000 ± 290 (≈ 2.37 mM) | 18 ± 0.24 | MIC, P. aeruginosa ATCC 27953 [1]: 150 ± 60 µg/mL (≈ 0.355 mM); effect on hydrophobicity index (CSH) [11]: no evident effect on CSH; IC50 [12]: 3.55 µM and 1.5 µg/mL; change in twitching zone diameter [14]: 30%
O=C(O)c1cn(C2CC2)c2cc(N3CCNCC3)c(F)cc2c1=O [Ciprofloxacin, reference compound] | – | 29 ± 0.18 | – | – | 23 ± 0.15 | – | 35 ± 0.28 | – | – | – | 33 ± 0.2 | – | 1.46 ± 0.28 | 8.98 ± 0.52 | 16.54 ± 0.61 | – | 26 ± 0.17 | % EPS inhibition ([15]; 2 MIC, listed as ciprofloxacin): ~ 16%
COc1ccc(C=Nn2c(CN3CCCC3)nc3ccccc3c2=O)cc1 [Compound 18, 3-[(4-Methoxybenzylidene)amino]-2-(pyrrolidin-1-ylmethyl)quinazolin-4(3H)-one] | – | 17 ± 0.3 | 2500 ± 290 (≈ 6.9 mM) | 118 to 120 | 14 ± 0.21 | 87.2 ± 2.34 | – | 13 ± 0.14 | 10000 ± 290 (≈ 27.6 mM) | 2500 (≈ 6.9 mM) | 16 ± 0.31 | 1500 ± 290 (≈ 4.14 mM) | – | – | – | 2000 (≈ 5.52 mM) | 18 ± 0.2 | –
